In one test the target is human Gal-1 (hGal-1) (Homo sapiens (Human), UniProt P09382). Nature of the test: competitive binding assay: biotinylated hGal-1 binding to microplate-adsorbed asialofetuin (ASF). The note with it: Table 15; read-out: IC50 (Galectin-1 inhibition). The procedure, abridged:
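Spectrophotometric competition readout: after compound and biotinylated hGal-1 (300-1000 ng/mL) sit 3 h at 4° C on adsorbed asialofetuin, streptavidin-peroxidase (1 h, 4° C) and ABTS reveal residual binding. Reported IC50 values are means of repeat runs.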

In the next test the target is human Gal-3 (hGal-3) (Homo sapiens (Human), UniProt P17931). The experiment in a line: competitive binding assay: biotinylated hGal-3 binding to microplate-adsorbed asialofetuin (ASF). The gist of the method:
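Serial DMSO dilutions of each compound; binding incubation of 3 hours at 4 °C with cold-buffer washes; detection using 80 ng/mL streptavidin-peroxidase for 1 hour, then ABTS. Multiple determinations were averaged to give the IC50.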

[1] abbreviates: Gal-3 inhibition, binding of biotinylated hGal-3 to ASF, mean values, read-out: IC50.
[2] abbreviates: Table 5, read-out: IC50 (Gal-3 inhibition).
Setting [3] is: Table 9, 2-OMe-Gal inhibitors, read-out: IC50 (Gal-3 inhibition).
Setting [4] is: Table 11, read-out: IC50 (Gal-3 inhibition).

17 compounds from patent US12404295B2, “(Hetero)aryl-methyl-thio-beta-D-galactopyranoside derivatives” (Idorsia Pharmaceuticals Ltd, priority 2019, dated 2025) can be followed below.

Where two headings read alike, the source gives them in different places.

Chain of human Gal-3 (hGal-3) (P17931 whole entry): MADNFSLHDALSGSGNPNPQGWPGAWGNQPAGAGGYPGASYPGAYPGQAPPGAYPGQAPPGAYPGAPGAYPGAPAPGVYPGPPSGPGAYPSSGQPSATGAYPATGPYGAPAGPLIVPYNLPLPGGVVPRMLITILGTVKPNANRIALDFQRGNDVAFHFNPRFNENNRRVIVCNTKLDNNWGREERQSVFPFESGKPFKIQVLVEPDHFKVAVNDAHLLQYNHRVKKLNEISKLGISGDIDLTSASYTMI
Chain of human Gal-1 (hGal-1) (P09382 whole entry): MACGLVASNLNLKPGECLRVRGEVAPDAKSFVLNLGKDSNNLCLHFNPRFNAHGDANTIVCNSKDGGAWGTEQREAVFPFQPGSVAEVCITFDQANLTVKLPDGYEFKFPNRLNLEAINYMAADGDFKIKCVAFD

For `CCc1c(C(S[C@@H]2O[C@H](CO)[C@H](O)[C@H](n3cc(-c4cc(F)c(F)c(F)c4)nn3)[C@H]2O)C2(O)CCC(F)(F)CC2)noc1C1CC1` (stereo partly drawn) [Example 2.44.130., (2S,3R,4S,5R,6R)-2-(((5-Cyclopropyl-4-ethylisoxazol-3-yl)(4,4-difluoro-1-hydroxycyclohexyl)methyl)thio)-6-(hydroxymethyl)-4-(4-(3,4,5-trifluorophenyl)-1H-1,2,3-triazol-1-yl)tetrahydro-2H-pyran-3,5-diol], the IC50 – broadly, the concentration that gives 50% inhibition – at human Gal-1 (hGal-1) was 130 nM; at human Gal-3 (hGal-3) (setting [1]) it was 60 nM.

`CC(C)c1ccccc1C(S[C@@H]1O[C@H](CO)[C@H](O)[C@H](n2cc(-c3cc(F)c(F)c(F)c3)nn2)[C@H]1O)C1(O)CCC(F)(F)CC1` (stereo partly drawn) [Example 2.44.105., (2S,3R,4S,5R,6R)-2-(((4,4-Difluoro-1-hydroxycyclohexyl)(2-isopropylphenyl)methyl)thio)-6-(hydroxymethyl)-4-(4-(3,4,5-trifluorophenyl)-1H-1,2,3-triazol-1-yl)tetrahydro-2H-pyran-3,5-diol [1,3-di-deoxy-1-((4,4-difluoro-1-hydroxy-cyclohexan-1-yl)-(2-(-isopropyl)phenyl)methyl-thio)-3-[4-(3,4,5-trifluorophenyl)-1H-1,2,3-triazol-1-yl]-β-D-galactopyranoside]]: the IC50 turned out to be 80 nM on human Gal-1 (hGal-1) and 140 nM at human Gal-3 (hGal-3) (setting [2]).

On to `CO[C@@H]1[C@@H](n2cc(-c3cc(F)c(F)c(F)c3)nn2)[C@@H](O)[C@@H](CO)O[C@H]1S[C@H](c1nnccc1C)C1(O)CCC(F)(F)CC1` [Example 2.44.135R.I., (2R,3R,4S,5R,6S)-6-(((R)-(4,4-Difluoro-1-hydroxycyclohexyl)(4-methylpyridazin-3-yl)methyl)thio)-2-(hydroxymethyl)-5-methoxy-4-(4-(3,4,5-trifluorophenyl)-1H-1,2,3-triazol-1-yl)tetrahydro-2H-pyran-3-ol], for which the figures for the IC50 at human Gal-1 (hGal-1) and on human Gal-3 (hGal-3) (setting [3]) were 200 nM and 70 nM, respectively.

Regarding `CO[C@@H]1[C@@H](n2cc(-c3ccc(F)c(F)c3)nn2)[C@@H](O)[C@@H](CO)O[C@H]1SC(c1ncccc1C)C1(O)CCC(F)(F)CC1` (stereo partly drawn) [Example 16.44.126.I., (2R,3R,4S,5R,6S)-6-(((4,4-Difluoro-1-hydroxycyclohexyl)(3-methylpyridin-2-yl)methyl)thio)-4-(4-(3,4-difluorophenyl)-1H-1,2,3-triazol-1-yl)-2-(hydroxymethyl)-5-methoxytetrahydro-2H-pyran-3-ol], the concentration for half-maximal inhibition (IC50) at human Gal-1 (hGal-1) is 730 nM; at human Gal-3 (hGal-3) (Table 14, read-out: IC50 (Gal-3 inhibition)), 90 nM.

Consider `CO[C@@H]1[C@@H](n2cc(-c3cc(F)c(F)c(F)c3)nn2)[C@@H](O)[C@@H](CO)O[C@H]1S[C@H](c1ncccc1C(C)C)C1(O)CCC(F)(F)CC1` [Example 2.44.132R.I., (2R,3R,4S,5R,6S)-6-(((R)-(4,4-Difluoro-1-hydroxycyclohexyl)(3-isopropylpyridin-2-yl)methyl)thio)-2-(hydroxymethyl)-5-methoxy-4-(4-(3,4,5-trifluorophenyl)-1H-1,2,3-triazol-1-yl)tetrahydro-2H-pyran-3-ol], for which the IC50 on human Gal-1 (hGal-1) turned out to be 100 nM; at human Gal-3 (hGal-3) (setting [3]), 120 nM.

Turning to `CO[C@@H]1[C@@H](n2cc(-c3cc(F)c(F)c(F)c3)nn2)[C@@H](O)[C@@H](CO)O[C@H]1S[C@@H](c1nc(C)c(C)nc1C)C1(O)CCC(F)(F)CC1` [Example 2.44.119S.I., (2R,3R,4S,5R,6S)-6-(((S)-(4,4-Difluoro-1-hydroxycyclohexyl)(3,5,6-trimethylpyrazin-2-yl)methyl)thio)-2-(hydroxymethyl)-5-methoxy-4-(4-(3,4,5-trifluorophenyl)-1H-1,2,3-triazol-1-yl)tetrahydro-2H-pyran-3-ol], the results for the half-maximal inhibitory concentration (IC50) on human Gal-1 (hGal-1) and at human Gal-3 (hGal-3) (setting [4]) were 28600 nM and 5110 nM, respectively.

`CCn1ncc(Cl)c1[C@H](S[C@@H]1O[C@H](CO)[C@H](O)[C@H](n2cc(-c3cc(F)c(F)c(F)c3)nn2)[C@H]1OC)C1(O)CCC(F)(F)CC1` [Example 2.44.139S.I., (2R,3R,4S,5R,6S)-6-(((S)-(4-Chloro-1-ethyl-1H-pyrazol-5-yl)(4,4-difluoro-1-hydroxycyclohexyl)methyl)thio)-2-(hydroxymethyl)-5-methoxy-4-(4-(3,4,5-trifluorophenyl)-1H-1,2,3-triazol-1-yl)tetrahydro-2H-pyran-3-ol]: the IC50 on human Gal-1 (hGal-1) is > 100000 nM; on human Gal-3 (hGal-3) (Table 10, 2-OMe-Gal inhibitors, read-out: IC50 (Gal-3 inhibition)), 37900 nM.

As to `Cc1nc(C)c([C@H](S[C@@H]2O[C@H](CO)[C@H](O)[C@H](n3cc(-c4cc(F)c(F)c(F)c4)nn3)[C@H]2O)C(C)(C)O)nc1C` [Example 2.31.119S., (2S,3R,4S,5R,6R)-2-(((S)-2-Hydroxy-2-methyl-1-(3,5,6-trimethylpyrazin-2-yl)propyl)thio)-6-(hydroxymethyl)-4-(4-(3,4,5-trifluorophenyl)-1H-1,2,3-triazol-1-yl)tetrahydro-2H-pyran-3,5-diol], the IC50 on human Gal-1 (hGal-1) is 18400 nM; on human Gal-3 (hGal-3) (setting [1]), 2630 nM.

As for `CO[C@@H]1[C@@H](n2cc(-c3cc(F)c(F)c(F)c3)nn2)[C@@H](O)[C@@H](CO)O[C@H]1S[C@@H](c1noc(C2CC2)c1C)C1(O)CCC(F)(F)CC1` [Example 2.44.145S.I., (2R,3R,4S,5R,6S)-6-(((S)-(5-Cyclopropyl-4-methylisoxazol-3-yl)(4,4-difluoro-1-hydroxycyclohexyl)methyl)thio)-2-(hydroxymethyl)-5-methoxy-4-(4-(3,4,5-trifluorophenyl)-1H-1,2,3-triazol-1-yl)tetrahydro-2H-pyran-3-ol], the IC50 at human Gal-1 (hGal-1) is 31000 nM; at human Gal-3 (hGal-3) (setting [4]) it was 11200 nM.

On to `OC[C@H]1O[C@@H](S[C@H](c2nccnc2Cl)C2(O)CCC(F)(F)CC2)[C@H](O)[C@@H](n2cc(-c3cc(F)c(F)c(F)c3)nn2)[C@H]1O` [Example 2.44.133R., (2S,3R,4S,5R,6R)-2-(((R)-(3-Chloropyrazin-2-yl)(4,4-difluoro-1-hydroxycyclohexyl)methyl)thio)-6-(hydroxymethyl)-4-(4-(3,4,5-trifluorophenyl)-1H-1,2,3-triazol-1-yl)tetrahydro-2H-pyran-3,5-diol], for which the concentration for half-maximal inhibition (IC50) at human Gal-1 (hGal-1) was determined as 160 nM; on human Gal-3 (hGal-3) (setting [1]), 20 nM.

Turning to `OC[C@H]1O[C@@H](S[C@H](c2ncccc2C(F)(F)F)C2(O)CCCC2)[C@H](O)[C@@H](n2cc(-c3cc(F)c(F)c(F)c3)nn2)[C@H]1O` [Example 2.38.125R., (2S,3R,4S,5R,6R)-2-(((R)-(1-Hydroxycyclopentyl)(3-(trifluoromethyl)pyridin-2-yl)methyl)thio)-6-(hydroxymethyl)-4-(4-(3,4,5-trifluorophenyl)-1H-1,2,3-triazol-1-yl)tetrahydro-2H-pyran-3,5-diol], the IC50 at human Gal-1 (hGal-1) was 480 nM; on human Gal-3 (hGal-3) (setting [1]) it was 80 nM.

As for “(2S,3R,4S,5R,6R)-2-(((S)-(3,3-Difluoro-1-hydroxycyclobutyl)(3-(trifluoromethyl)pyridin-2-yl)methyl)thio)-6-(hydroxymethyl)-4-(4-(3,4,5-trifluorophenyl)-1H-1,2,3-triazol-1-yl)tetrahydro-2H-pyran-3,5-diol [Example 2.35.125S.]”, the IC50 at human Gal-1 (hGal-1) amounted to 21800 nM; on human Gal-3 (hGal-3) (setting [2]) it was 3000 nM.

`CO[C@@H]1[C@@H](n2cc(-c3cc(F)c(F)c(F)c3)nn2)[C@@H](O)[C@@H](CO)O[C@H]1S[C@H](c1ncccc1Cl)C1(O)CCC(F)(F)CC1` [Example 2.44.137R.I., (2R,3R,4S,5R,6S)-6-(((R)-(3-Chloropyridin-2-yl)(4,4-difluoro-1-hydroxycyclohexyl)methyl)thio)-2-(hydroxymethyl)-5-methoxy-4-(4-(3,4,5-trifluorophenyl)-1H-1,2,3-triazol-1-yl)tetrahydro-2H-pyran-3-ol]: the values for the half-inhibitory concentration (IC50) on human Gal-1 (hGal-1) and at human Gal-3 (hGal-3) (setting [3]) were 720 nM and 70 nM, respectively.

As to `Cc1c(F)cccc1[C@H](S[C@@H]1O[C@H](CO)[C@H](O)[C@H](n2cc(-c3cc(F)c(F)c(F)c3)nn2)[C@H]1O)C(C)(C)O` [Example 2.31.114S., (2S,3R,4S,5R,6R)-2-(((S)-1-(3-Fluoro-2-methylphenyl)-2-hydroxy-2-methylpropyl)thio)-6-(hydroxymethyl)-4-(4-(3,4,5-trifluorophenyl)-1H-1,2,3-triazol-1-yl)tetrahydro-2H-pyran-3,5-diol], the 50% inhibitory concentration (IC50) was 40900 nM on human Gal-1 (hGal-1) and 5400 nM at human Gal-3 (hGal-3) (setting [1]).

For `CCC(O)(CC)[C@H](S[C@@H]1O[C@H](CO)[C@H](O)[C@H](n2cc(-c3cc(F)c(F)c(F)c3)nn2)[C@H]1O)c1conc1C` [Example 2.32.120R., (2S,3R,4S,5R,6R)-2-(((R)-2-Ethyl-2-hydroxy-1-(3-methylisoxazol-4-yl)butyl)thio)-6-(hydroxymethyl)-4-(4-(3,4,5-trifluorophenyl)-1H-1,2,3-triazol-1-yl)tetrahydro-2H-pyran-3,5-diol], the figures for the half-maximal inhibitory concentration (IC50) at human Gal-1 (hGal-1) and at human Gal-3 (hGal-3) (setting [1]) were 2830 nM and 1220 nM, respectively.

`CCC(O)C(S[C@@H]1O[C@H](CO)[C@H](O)[C@H](n2cc(-c3cc(F)c(F)c(F)c3)nn2)[C@H]1O)c1ccccc1C(F)(F)F` (stereo partly drawn) [Example 2.60.112., (2S,3R,4S,5R,6R)-2-((2-Hydroxy-1-(2-(trifluoromethyl)phenyl)butyl)thio)-6-(hydroxymethyl)-4-(4-(3,4,5-trifluorophenyl)-1H-1,2,3-triazol-1-yl)tetrahydro-2H-pyran-3,5-diol]: the 50% inhibitory concentration (IC50) on human Gal-1 (hGal-1) amounted to 3500 nM; on human Gal-3 (hGal-3) (setting [1]), 230 nM.

Turning to “(2S,3R,4S,5R,6R)-2-(((S)-((S)-4-Hydroxy-2,2-dimethyltetrahydro-2H-pyran-4-yl)(o-tolyl)methyl)thio)-6-(hydroxymethyl)-4-(4-(3,4,5-trifluorophenyl)-1H-1,2,3-triazol-1-yl)tetrahydro-2H-pyran-3,5-diol [Example 2.43.112SS.]”, the IC50 was 19400 nM on human Gal-1 (hGal-1) and 7300 nM at human Gal-3 (hGal-3) (setting [2]).
